Experimental findings from PubChem BioAssay (NCI) are described below.

Structures are written as SMILES.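 Growth conditions: 96-well plates. Treatment: test compound, 48 hours, 5 concentrations. Analysis: linear interpolation between bracketing concentrations; unreached endpoints set to highest concentration. GI50 = concentration required for 50% inhibition of growth. The concentration for full growth arrest is given as TGI.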

Common to all, as to assay: NCI anticancer screen, dose series, 48 h
The test system of assay [1] is A498 renal.
The subject of assay [2] is HS 578T breast.
Assay [3] relates to K-562 leukemia.
For assay [4], the system named is LOX IMVI melanoma.
For assay [5], the system named is MDA-MB-231 breast.
Assay [6] relates to MOLT-4 leukemia.
In assay [7] the test system is NCI-H23 lung.
Assay [8] relates to SN12C renal.
The test system of assay [9] is U251 CNS.
For assay [10], the system named is UACC-257 melanoma.

Take `C=C1C(=O)OC2CC3(CO3)C3C(O)C(O)CC3(C)CC12` (stereo not given): the TGI is 64.2 µM in assay [1]; over 100 µM in assay [2]; over 100 µM in [3]; 23.5 µM in assay [4]; 60.5 µM in assay [5]; 46.7 µM in assay [6]. For the same compound, the TGI in assay [7] is 47.9 µM; in [8], 68.1 µM; in assay [9], over 100 µM; in [10] it was over 100 µM.

`COC(=O)/C(=C\c1c(C)[nH]c2ccccc12)S(=O)(=O)c1ccccc1`: the GI50 was 5.45 µM in assay [1]; 2.85 µM in [2]; over 100 µM in assay [3]; 1.99 µM in assay [4]; 2.74 µM in assay [5]; 1.9 µM in [6]. Also, the GI50 is 4.81 µM in assay [7], 2.55 µM in assay [8], 3.42 µM in assay [9] and 6.97 µM in assay [10]. Also, the TGI in assay [1] was 20.9 µM; in [2] it was 13.6 µM; in assay [3], over 100 µM; in assay [4] it was 5.18 µM; in assay [5] it was 14.5 µM; in assay [6], over 100 µM. The TGI turned out to be 29.5 µM in [7], 10.3 µM in [8], 12.6 µM in assay [9] and 20.9 µM in [10].

Take `C/C=C(\C)C(=O)O[C@H]1C=CC(=O)O[C@H]1CNC(=O)[C@H](C)O`: the GI50 in assay [1] was 22.8 µM; in assay [2], 18.6 µM; in assay [3], 22.3 µM; in assay [4] it was 15.9 µM; in [5], 19.1 µM; in assay [6], 21.4 µM. For the same compound, the GI50 in [7] is 22.1 µM; in assay [8], 18.9 µM; in [9], 15.7 µM; in assay [10], 17.1 µM. In addition, the TGI is 43.7 µM in assay [1]; 47.2 µM in assay [2]; over 100 µM in assay [3]; 30.4 µM in [4]; 36.3 µM in assay [5]; 46.6 µM in [6]. Moreover, the TGI in assay [7] came to 47.8 µM; in assay [8], 40.3 µM; in assay [9], 29.9 µM; in assay [10] it was 37.6 µM.

In the case of `COc1cc(/C=C/C(=O)c2ccc(Cl)cc2)ccc1OS(=O)(=O)c1ccc(C)cc1`, the GI50 was 28.8 µM in assay [1]; 3.99 µM in [2]; 2.87 µM in assay [3]; 1.93 µM in [4]; 9.02 µM in assay [5]; 2.76 µM in [6]. The GI50 was 13.3 µM in [7], 10 µM in [8], 2.18 µM in assay [9] and 14 µM in assay [10]. For the same compound, the TGI in assay [1] was over 100 µM; in [2], over 100 µM; in assay [3], 11.3 µM; in [4], 3.67 µM; in [5], 28 µM; in assay [6], 7.74 µM. The TGI in assay [7] was determined as 43.6 µM; in assay [8], 34.8 µM; in assay [9], 5.38 µM; in assay [10], 36.3 µM.

Consider `O=C(C(Br)Br)C(Br)C(Br)c1ccccc1` (stereo not given), for which the GI50 in assay [1] was 19.7 µM; in assay [2] it was 43.5 µM; in [3], 1.89 µM; in assay [4] it was 1.49 µM; in [5], 5.4 µM; in assay [6] it was 1.82 µM. The GI50 is 5.16 µM in [7], 12.7 µM in [8], 2.96 µM in assay [9] and 2.39 µM in assay [10]. For the same compound, the TGI is 35 µM in [1]; over 100 µM in assay [2]; 5.37 µM in [3]; 3.61 µM in assay [4]; 20.6 µM in assay [5]; 4.76 µM in assay [6]. In addition, the TGI in assay [7] was determined as 27.5 µM; in assay [8], 33.2 µM; in assay [9], 10.8 µM; in assay [10] it was 7.24 µM.

For the compound `CC(C)(O)C1OCC(C2CCC3(C)C4=CCC5C(C)(C)C(O)CCC5(C)C4CCC23C)CC1O` (stereo not given), the TGI was determined as 30.4 µM in [1]; 29.3 µM in assay [2]; 17.3 µM in assay [3]; 42.7 µM in assay [4]; 28.6 µM in assay [5]; 41.9 µM in assay [6]. For the same compound, the TGI in [7] was determined as 81.3 µM; in assay [8], 27.5 µM; in assay [9], 27.5 µM; in assay [10], 39.3 µM.

`O=C(NC(=S)Nc1ccc(Cl)cc1)c1ccccc1`: the GI50 in assay [1] is 33 µM; in assay [2], 38.8 µM; in [3], over 100 µM; in assay [4], over 100 µM; in assay [5] it was over 51.6 µM; in assay [6], over 100 µM. In addition, the GI50 is over 100 µM in assay [7], over 100 µM in assay [8], over 77.2 µM in assay [9] and over 100 µM in assay [10]. The TGI in [1], in assay [2], in [3], in [4], in [5] and in assay [6] was over 100 µM throughout. The TGI in [7], in assay [8], in assay [9] and in [10] was over 100 µM in each case.

Turning to `COc1c(O)ccc2c1CN1CCc3cc4c(cc3C1C2)OCO4` (stereo not given), the TGI in assay [1] is over 78.9 µM; in assay [2], over 100 µM; in assay [3], over 100 µM; in [4] it was over 77.8 µM; in [5], over 100 µM; in [6], over 100 µM. The TGI in assay [7] is over 100 µM; in assay [8] it was over 84.4 µM; in [9], over 100 µM; in assay [10], over 77.2 µM.

With `CC(=O)OC(C)(C)/C=C/C(=O)[C@](C)(O)[C@H]1[C@H](O)C[C@@]2(C)[C@@H]3CC=C4[C@@H](C[C@H](O)C(=O)C4(C)C)[C@]3(C)C(=O)C[C@]12C`, the TGI in [1] was under 0.01 µM; in [2], under 0.01 µM; in assay [3] it was 16.8 µM; in assay [4], under 0.01 µM; in [5], under 0.01 µM; in assay [6], 2.78 µM. In addition, the TGI in [7] is 4.07 µM; in assay [8], 2.99 µM; in [9], under 0.01 µM; in assay [10] it was 2.42 µM.
